Results reported in patent US11419806B2, “Prebiotic oral care methods using a saccharide” (Colgate-Palmolive Company, priority 2013, dated 2022).

Key:
Format in all cases: cell-based
S. sanguinis = assay: Twenty-four hour optical density growth in BHI
Veillonella parvula = assay: Twenty-four hour optical density growth in BHI; details: V parvula
Procedure, shortened: (§1)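 Late-exponential cultures in BHI were adjusted to 1×10^7 CFU/ml and exposed to myo-inositol, D-lactitol, D-turanose or N-acetyl-D-mannosamine at final 5, 10, 20 and 25 μmol/ml, with no-saccharide controls. Incubation was anaerobic at 37° C; OD630 was read at 0 h and 24 h. Values are means of three days, each averaging quadruplicates.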

Prevotella intermedia = assay: Twenty-four hour optical density growth in BHI; details: P intermedia
Procedure, shortened: as §1

Streptococcus mitis = assay: Twenty-four hour optical density growth in BHI; details: S mitis
Streptococcus sobrinus = assay: Twenty-four hour optical density growth in BHI; details: S sobrinus
Streptococcus salivarius = assay: Twenty-four hour optical density growth in BHI; details: S salivarius
[1] = system: Aggregatibacter actinomycetemcomitans; assay: Twenty-four hour optical density growth in BHI; details: A actinomycetemcomitans
[2] = system: beneficial oral bacteria and pathogenic oral bacteria; assay: Microarray screen, overall prebiotic assessment
Description: Substrates that were able to increase the metabolic activity of at least one of the above beneficial bacteria while not or only minimally increasing the growth of the pathogenic bacteria are considered to be prebiotic substrates.
The extent of metabolic activity of the tested bacteria in the presence of the above-mentioned saccharides after 24 hours and 48 hours was investigated through a high throughput phenotype microarray system (PM) for microbial cells (Biolog Inc.). Each PM can contain up to 95 different biochemical compounds (e.g. saccharides) that may act as substrates for bacteria as well as one negative control, not containing the substrates. Microarray plates were used in which the different wells of each plate were pre-loaded (by the manufacturer, Biolog Inc.) with different saccharides to be tested. Each bacterial species was tested using a separate microarray plate. Thus, a single bacterial species was tested with a variety of saccharides on each particular plate. The microarrays are based on redox technology, using cell respiration as a universal reporter. Active cell respiration results in the reduction of a tetrazolium dye and in the formation of a strong color—for example, when using the tetrazolium dye “Biolog Redox Dye Mix D”, the color changes from transparent/colorless to purple when the dye is reduced. The observation of this color change indicates which of the substrates improve the metabolic activity and health of the cells.
Each bacterial species was collected from blood agar plates (incubated for 48 hours anaerobically at 37° C.) and transferred to an IF-0 Base inoculation fluid (Biolog Inc.), which is a nutritionally poor medium. The resulting cell suspension was adjusted to a transmittance of 42% (relative to the transmittance of the base inoculation fluid with no bacterial species present) at 492 nm using a BioRad SmartSpec 3000 Photometer (the adjustment being effected by adding either further inoculation fluid or further bacteria until the transmittance of 42% was achieved). A 1:5 dilution of this suspension was prepared by mixing 3 mL of the 42% transmittance cell suspension with 15 mL of an inoculation fluid (which inoculation fluid was formed by mixing 11.6 mL sterile water, 62.5 mL IF-0 base inoculation fluid and 0.9 mL of the tetrazolium dye “Biolog Redox Dye mix D”), resulting in a final cell density which was equal to 85% transmittance using a BioRad SmartSpec 3000 Photometer. For each of the saccharides tested, the microarray plate (obtained from the supplier (Biolog Inc.) with saccharides already present in the relevant wells in powder form) was directly inoculated with 100 μL/well of this 85% transmittance cell suspension.
All plates were incubated in an anaerobic atmosphere at 37° C. Color changes were measured spectrophotometrically at 492 nm (Thermo Scientific Multiskan Ascent) at 24 hrs and 48 hrs using the same plate at both time points. […] After 24 hrs and 48 hrs under continuous shaking in a Multiscan microplate reader, the optical density (OD) of the synthetic medium at 24 hours and 48 hours was measured (using the microplate reader) at a wavelength of 492 nm for each combination of bacterium/saccharide, and for each of their respective controls (i.e. which contained the particular bacterium but no saccharide).
The experiment was carried out three times for each combination of bacterium with saccharide, with each repeat being carried out on a different day (thus providing three biological replicas). The controls were also carried out three times, as above. The values shown are the average (mean) of the three single values obtained (as detailed above) for each combination of bacterium with saccharide, at 24 hrs and at 48 hrs.
This value was selected in order to exclude low-stimulating metabolites and avoid false positive results.

Row | Structure (SMILES) | extent of growth: maximal OD630 over 24 hr divided by maximal OD of control (control = 1) (S. sanguinis; 5 μmol/ml) | extent of growth: maximal OD630 over 24 hr divided by maximal OD of control (control = 1) (S. sanguinis; 10 μmol/ml) | extent of growth: maximal OD630 over 24 hr divided by maximal OD of control (control = 1) (S. sanguinis; 20 μmol/ml) | extent of growth: maximal OD630 over 24 hr divided by maximal OD of control (control = 1) (S. sanguinis; 25 μmol/ml) | extent of growth: maximal OD630 over 24 hr divided by maximal OD of control (control = 1) (Veillonella parvula; 5 μmol/ml) | extent of growth: maximal OD630 over 24 hr divided by maximal OD of control (control = 1) (Veillonella parvula; 10 μmol/ml) | extent of growth: maximal OD630 over 24 hr divided by maximal OD of control (control = 1) (Veillonella parvula; 20 μmol/ml) | extent of growth: maximal OD630 over 24 hr divided by maximal OD of control (control = 1) (Veillonella parvula; 25 μmol/ml) | extent of growth: maximal OD630 over 24 hr divided by maximal OD of control (control = 1) (Prevotella intermedia; 5 μmol/ml) | extent of growth: maximal OD630 over 24 hr divided by maximal OD of control (control = 1) (Prevotella intermedia; 10 μmol/ml) | extent of growth: maximal OD630 over 24 hr divided by maximal OD of control (control = 1) (Prevotella intermedia; 20 μmol/ml) | extent of growth: maximal OD630 over 24 hr divided by maximal OD of control (control = 1) (Prevotella intermedia; 25 μmol/ml) | extent of growth: maximal OD630 over 24 hr divided by maximal OD of control (control = 1) (Streptococcus mitis; 5 μmol/ml) | extent of growth: maximal OD630 over 24 hr divided by maximal OD of control (control = 1) (Streptococcus mitis; 10 μmol/ml) | extent of growth: maximal OD630 over 24 hr divided by maximal OD of control (control = 1) (Streptococcus mitis; 20 μmol/ml) | extent of growth: maximal OD630 over 24 hr divided by maximal OD of control (control = 1) (Streptococcus mitis; 25 μmol/ml) | extent of growth: maximal OD630 over 24 hr divided by maximal OD of control (control = 1) (Streptococcus sobrinus; 5 μmol/ml) | extent of growth: maximal OD630 over 24 hr divided by maximal OD of control (control = 1) (Streptococcus sobrinus; 10 μmol/ml) | extent of growth: maximal OD630 over 24 hr divided by maximal OD of control (control = 1) (Streptococcus sobrinus; 20 μmol/ml) | extent of growth: maximal OD630 over 24 hr divided by maximal OD of control (control = 1) (Streptococcus sobrinus; 25 μmol/ml) | also measured
1 | O[C@H]1[C@H](O)[C@@H](O)[C@H](O)[C@@H](O)[C@H]1O [Myo-Inositol, (1R,2R,3S,4S,5R,6S)-cyclohexane-1,2,3,4,5,6-hexol] | 0.9429 | 0.9536 | 0.8540 | 0.9077 | 0.9050 | 0.9049 | 0.8987 | 0.8933 | 0.9519 | 0.9564 | 0.9230 | 0.9158 | 0.9921 | 0.9622 | 0.8975 | 0.8423 | 0.9301 | 0.9360 | 0.9087 | 0.9224 | extent of growth: maximal OD630 over 24 hr divided by maximal OD of control (control = 1) (Streptococcus salivarius; 5 μmol/ml): 0.9359; extent of growth: maximal OD630 over 24 hr divided by maximal OD of control (control = 1) (Streptococcus salivarius; 10 μmol/ml): 0.9395; extent of growth: maximal OD630 over 24 hr divided by maximal OD of control (control = 1) (Streptococcus salivarius; 20 μmol/ml): 0.9136; extent of growth: maximal OD630 over 24 hr divided by maximal OD of control (control = 1) (Streptococcus salivarius; 25 μmol/ml): 0.8905; extent of growth: maximal OD630 over 24 hr divided by maximal OD of control (control = 1) ([1]; 5 μmol/ml): 0.6977; extent of growth: maximal OD630 over 24 hr divided by maximal OD of control (control = 1) ([1]; 10 μmol/ml): 0.7107; extent of growth: maximal OD630 over 24 hr divided by maximal OD of control (control = 1) ([1]; 20 μmol/ml): 0.7396; extent of growth: maximal OD630 over 24 hr divided by maximal OD of control (control = 1) ([1]; 25 μmol/ml): 0.7361; prebiotic effects (metabolic activity, threshold value 2) ([2]; 24 hrs): exhibited prebiotic effects; prebiotic effects (metabolic activity, threshold value 2) ([2]; 48 hrs): exhibited prebiotic effects
2 | OC[C@@H](O)[C@@H](O[C@H]1O[C@H](CO)[C@H](O)[C@H](O)[C@H]1O)[C@H](O)[C@@H](O)CO [D-Lactitol, 4-O-α-D-galactopyranosyl-D-glucitol] | 0.8901 | 0.9323 | 0.9356 | 0.9393 | 0.8722 | 0.8854 | 0.8909 | 0.9054 | 0.9178 | 0.9210 | 0.9185 | 0.9036 | 0.8694 | 0.9020 | 0.9151 | 0.8839 | 1.0650 | 1.0189 | 1.0335 | 1.0163 | extent of growth: maximal OD630 over 24 hr divided by maximal OD of control (control = 1) (Streptococcus salivarius; 5 μmol/ml): 1.1349; extent of growth: maximal OD630 over 24 hr divided by maximal OD of control (control = 1) (Streptococcus salivarius; 10 μmol/ml): 1.3489; extent of growth: maximal OD630 over 24 hr divided by maximal OD of control (control = 1) (Streptococcus salivarius; 20 μmol/ml): 1.3431; extent of growth: maximal OD630 over 24 hr divided by maximal OD of control (control = 1) (Streptococcus salivarius; 25 μmol/ml): 1.3159; extent of growth: maximal OD630 over 24 hr divided by maximal OD of control (control = 1) ([1]; 5 μmol/ml): 0.7044; extent of growth: maximal OD630 over 24 hr divided by maximal OD of control (control = 1) ([1]; 10 μmol/ml): 0.7052; extent of growth: maximal OD630 over 24 hr divided by maximal OD of control (control = 1) ([1]; 20 μmol/ml): 0.6952; extent of growth: maximal OD630 over 24 hr divided by maximal OD of control (control = 1) ([1]; 25 μmol/ml): 0.7095; prebiotic effects (metabolic activity, threshold value 2) ([2]; 24 hrs): exhibited prebiotic effects
